Results on 4 molecules are retold here after US9139546B2, “Tri-aryl/heteroaromatic cannabinoids and use thereof” (priority 2007, dated 2015).

One experiment deals with IL-6. Briefly: IL-6 level in supernatant of TNF-α treated A549 cells (multiplex bead immunoassay). It is filed as cell-based, human. The settings on record: A549, 10 ng/mL TNF-α, 18 hours. How it is done:
(§1) Human lung adenocarcinoma cell line A549 (alveolar type II epithelial-like) cells (ATCC, Manassas, Va.) were maintained in growth media consisting of DMEM supplemented with 10% heat-inactivated fetal calf serum, 2 mM L-glutamine, 100 U/ml penicillin, and 100 μg/ml streptomycin.
(§2) One day prior to treatment, A549 cells were seeded in 24 well culture plates at 6×10^4 cells/well in 1 mL of DMEM containing 1% FCS. On the day of treatment, media was aspirated. Following PBS wash, 1 mL of media containing 1% FCS, 10 ng/mL TNF-α, and varying concentrations of test compounds was added. Samples were collected at 18 hours and immediately transferred to −80° C. until the day of analysis.
(§3) Levels of IL-6 and CXCL-8 were measured in cell culture supernatant using the Multiplex Bead Immunoassay Kit (Biosource, Camarillo, Calif.) paired with the Luminex® 200™ System. Standard solutions were prepared by serial dilution in a 50% media, 50% buffer solution so that they were in the same matrix as the samples. Standards and samples were mixed with a solution containing beads coated with capture antibodies specific for IL-6 and CXCL-8. Each capture antibody is bound to a specific bead population with a known internal fluorescence. The Luminex system can differentiate between internal fluorescence of beads allowing detection of multiple analytes in the same well. Following overnight incubation to allow complexation of protein with capture antibodies, wells were washed and beads resuspended in assay buffer. Biotinylated reporter antibodies specific for IL-6 and CXCL-8 were added and incubated for 1.5 hours. Unbound antibodies were removed by washing, and Streptavidin-Phycoerythrin (PE) was added and incubated 30 minutes. Streptavidin binds to biotin on the reporter antibodies. Unbound reagents were removed and samples were analyzed by the Luminex system. This system utilizes a flow cytometry system and lasers capable of exciting the internal dyes of the beads and PE. The machine separates signals from beads with different internal fluorescence and measures fluorescence intensity from PE bound to these beads through protein-antibody interactions. This fluorescence intensity is reported as the median of 100 beads per cytokine in each well. Concentrations were interpolated by fitting fluorescence intensity from unknowns to the standard curves.
(§4) Cells treated with the pro-inflammatory cytokine TNF-α increase production of IL-6 and CXCL-8 when compared to cells not treated with TNF-α. Cells treated with anti-inflammatory compounds block the inflammatory effect of TNF-α and produce IL-6 and CXCL-8 levels similar to cells that are not treated with TNF-α.

The next experiment concerns NF-κB. As to the kind of experiment: NF-κB SEAP reporter assay in TNF-α treated A549 cells. It is filed as cell-based. The following applies: Homo sapiens, read-out: NF-κB Reduction; for inhibition at 0.1 µM: A549, 18 h. How it is done: as §1
The plasmid pNF-κB-SEAP-NPT was kindly provided by Dr. Y. S. Kim of the Seoul National University. This plasmid contains a secreted alkaline phosphatase (SEAP) reporter gene coupled with the κB response element. Upon activation, NF-κB translocates to the nucleus and binds to the κB response element causing transcriptional activation. This activation drives production of the SEAP reporter, which is secreted into the cell culture supernatant where it can be measured. The neomycin phosphotransferase (NPT) region of the plasmid provides resistance to the antibiotic G-418.
A549 cells were stably transfected with pNF-κB-SEAP-NPT using GeneJammer Transfection Reagent (Stratagene, La Jolla, Calif.) per manufacturer's protocol. G-418 (500 μg/ml) was added 24 hrs after transfection to select for stable transfection of NF-κB. Resistant colonies were selected and maintained in growth media supplemented with 500 μg/ml G-418.
Previous experiments have shown A549 cells respond to the pro-inflammatory cytokine TNF-α by activation of the pro-inflammatory transcription factor, NF-κB. This effect is dose dependent with the maximum effect seen at 10 ng/mL TNF-α. Compounds with anti-inflammatory activity can be used to inhibit this activation of NF-κB.
One day prior to treatment, transfected cells were seeded in 24 well culture plates at 6×10^4 cells/well in 1 mL of DMEM containing 1% FCS. On the day of treatment, media was aspirated. Following PBS wash, 1 mL of media containing 1% FCS, 10 ng/mL TNF-α, and varying concentrations of test compounds was added. Cell culture supernatant was collected at 18 hours. SEAP production was measured in 50 μL of supernatant using the Great EscAPe™ chemiluminescence kit (Clontech, Mountain View, Calif.). Briefly, samples were incubated at 65° C. for 30 minutes to inactivate endogenous alkaline phosphate. Following a 5-minute equilibration with assay buffer, chemiluminescent substrate and enhancer was added. Chemiluminescence was measured after 10 minutes. Higher levels of chemiluminescence result from increased SEAP production and correspond to NF-κB activity. Compounds capable of inhibiting NF-κB activation due to TNF-α are determined by a reduction in chemiluminescence values when cells are treated with TNF-α and test compound versus cells treated with TNF-α alone.
(In general: In a reporter assay the amount or activity of a reporter protein is the signal.)

Experiment [1] has as its system DMS-135 lung cancer cells. Briefly: Anti-cancer activity, WST-8 cell viability, DMS-135. The class given is cell-based. The following applies: Homo sapiens. How it is done:
(§5) A representative group of compounds (shown below) was tested for anti-cancer activity against human lung (DMS-135 and H69AR), prostate (DU-145), colorectal (HCT-15), and pancreatic (BxPC-3) cancer cell lines using the methodology described below, providing results shown in Table 3.
(§6) Human cancer cells DU-145, DMS-135, H69AR, HCT-15, and BxPC-3 (American Type Culture Collection, ATCC) were cultured in supplemented media according to the recommendations of the supplier. Cells lines were plated in 96-well flat-bottom plates at 70% confluency in a 100 μl total volume of supplemented media as indicated, and incubated overnight at 37° C. to allow for adherence. The cultures were inoculated with escalating amounts of drug and cell death was analyzed at 18 hours, using the BioTek Synergy 2 Multidetection Microplate Reader. The percentage of viable cells present in the culture at each time point was calculated by comparing the absorbance value at 450 nm from the WST-8 assay (Pojindo Molecular Technologies) for each condition with untreated control cells.

The next experiment concerns the target human CB2 receptor (Homo sapiens (Human), UniProt P34972). Briefly: Receptor binding assay, CB2 ([3H]CP 55,940 displacement). The settings on record: for Ki: as repeated in the anti-inflammatory table, read-out: CB-2 Ki; for CB1/CB2: ratio of Ki CB-1 to Ki CB-2. How it is done:
(§7) The assays were carried out in 96 well plates obtained from Millipore, Inc. fitted with glass fiber filters (hydrophilic, GFC filters) having a pore size of 1.2μ. The filters were soaked with 0.05% polyethyleneimine solution and washed 5× with deionized water prior to carrying out the assays. The filtrations were carried out on a 96 well vacuum manifold (Millipore Inc.), the filters punched out with a pipette tip directly into scintillation vials at the end of the experiment and vials filled with 5 ml scintillation cocktail Ecolite (+) (Fisher Scientific). Counting was carried out on a Beckmann Scintillation Counter model LS6500. Drug solutions were prepared in DMSO and the radioligand was dissolved in ethanol.
(§8) 50 mM TRIS-HCl, 5 mM MgCl2, 2.5 mM EDTA, 0.5 mg/ml fatty acid free bovine serum albumin, pH 7.4.
(§9) The membranes were filtered and the filters washed 7× with 0.2 ml ice-cold incubation buffer and allowed to air dry under vacuum.
(§10) Final data are presented as Ki±S.E.M. of n≧3 experiments.

The test system of a further experiment is CXCL-8. Briefly: CXCL-8 level in supernatant of TNF-α treated A549 cells (multiplex bead immunoassay). The class given is cell-based, human. The following applies: A549, 10 ng/mL TNF-α, 18 hours. The procedure:
as §1, §2, §3, §4

A further experiment has as its target human CB1 receptor (Homo sapiens (Human), UniProt P21554). Briefly: Receptor binding assay, CB1 ([3H]CP 55,940 displacement). The following applies: as repeated in the anti-inflammatory table; read-out: CB-1 Ki. The procedure:
as §7, §8, §9, §10

In the next experiment the test system is H69AR lung cancer cells. Briefly: Anti-cancer activity, WST-8 cell viability, H69AR. It is filed as cell-based. The following applies: Homo sapiens. The procedure:
as §5, §6
A general note: Tetrazolium dyes change colour on reduction, which living cells bring about.

Experiment [2] deals with BxPC-3 pancreatic cancer cells. Briefly: Anti-cancer activity, WST-8 cell viability, BxPC-3. It is filed as cell-based. The following applies: Homo sapiens. How it is done: as §5, §6
For experiment [3], the system named is DU-145 prostate cancer cells. Briefly: Anti-cancer activity, WST-8 cell viability, DU-145. It is filed as cell-based. The following applies: Homo sapiens. How it is done: as §5, §6
The subject of experiment [4] is HCT-15 colorectal cancer cells. Briefly: Anti-cancer activity, WST-8 cell viability, HCT-15. The class given is cell-based. The following applies: Homo sapiens. How it is done: as §5, §6
Another experiment relates to CCL-2. Briefly: CCL-2 reduction in TNF-α treated A549 cells. The class given is cell-based, human. The following applies: A549, 10 ng/mL TNF-α.

Read-outs that look alike come from different tables or passages of the source.

Sequence of human CB1 receptor (P21554 whole entry): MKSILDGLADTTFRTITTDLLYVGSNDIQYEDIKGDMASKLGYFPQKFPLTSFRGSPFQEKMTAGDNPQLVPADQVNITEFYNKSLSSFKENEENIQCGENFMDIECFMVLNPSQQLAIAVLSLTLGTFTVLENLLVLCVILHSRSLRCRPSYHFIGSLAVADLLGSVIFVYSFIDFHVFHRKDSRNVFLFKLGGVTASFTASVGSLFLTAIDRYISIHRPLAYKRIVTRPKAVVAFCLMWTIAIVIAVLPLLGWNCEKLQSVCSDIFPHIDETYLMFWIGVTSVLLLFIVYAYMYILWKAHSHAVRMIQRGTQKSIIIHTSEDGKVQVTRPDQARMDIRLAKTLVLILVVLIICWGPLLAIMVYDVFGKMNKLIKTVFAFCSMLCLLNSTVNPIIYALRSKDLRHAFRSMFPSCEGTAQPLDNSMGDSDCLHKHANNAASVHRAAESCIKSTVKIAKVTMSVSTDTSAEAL

In the case of `O=C(c1ccccc1)c1cc(O)c(-c2cc(Cl)cc(Cl)c2)c(O)c1` [Compound 28, (3′,5′-dichloro-2,6-dihydroxybiphenyl-4-yl)(phenyl)methanone], the “IL-6 Reduction” value in the experiment with IL-6 (1 μM compound) stood at 15%. The inhibition at 1 µM in the experiment on NF-κB (1 μM compound, A549, 10 ng/mL TNF-α, 18 hours) stood at 35%. Further, the EC50 in [1] (cell death at 18 hours, WST-8, n.a. = no activity, read-out: DMS-135 lung EC50) came out at 11.8 µM; in the experiment on H69AR lung cancer cells (cell death at 18 hours, WST-8, n.a. = no activity, read-out: H69AR lung EC50), 2.4 µM; in experiment [2] (BXPC-3, cell death at 18 hours, WST-8, n.a. = no activity, read-out: BxPC-3 pancreatic EC50), 4 µM; in [3] (DU-145, cell death at 18 hours, WST-8, n.a. = no activity, read-out: DU-145 prostate EC50), 5.4 µM; in experiment [4] (HCT-15, cell death at 18 hours, WST-8, n.a. = no activity, read-out: HCT-15 colorectal EC50) it was 0.8 µM. The values for the Ki at human CB2 receptor and on human CB1 receptor were 0.00294 µM and 0.027 µM, respectively. In addition, the CB1/CB2 on human CB2 receptor was 9.18. Besides, the “CXCL-8 Reduction” value in the experiment on CXCL-8 (1 μM compound) was 5%.

`COc1cc(C(=O)c2ccccc2)cc(O)c1-c1cccc(C)c1` [Compound 27, (2-Hydroxy-6-methoxy-3′-methyl-biphenyl-4-yl)-phenyl-methanone]: the inhibition at 0.001 µM with NF-κB (1 nM compound, A549, 10 ng/mL TNF-α, 18 hours) worked out at 45%. Also, the inhibition at 0.01 µM with NF-κB (10 nM compound, A549, 10 ng/mL TNF-α, 18 hours) was found to be 38 ± 10%. Also, the Ki on human CB2 receptor is 0.225 µM; on human CB1 receptor, more than 1 µM. Besides, the CB1/CB2 at human CB2 receptor stood at 4.44. The results for the “CXCL-8 Reduction” value in the experiment with CXCL-8 (1 nM compound) and in the experiment with CXCL-8 (10 nM compound) were 50% and 27 ± 15%, respectively. For the same molecule, the “CCL-2 Reduction” value in the experiment with CCL-2 (10 nM compound) was determined as 32 ± 9%.

Take `COc1cc(C(=O)c2ccccc2)cc(O)c1-c1cc(Cl)cc(Cl)c1` [Compound 29, (3′,5′-dichloro-2-hydroxy-6-methoxybiphenyl-4-yl)(phenyl)methanone]: the “IL-6 Reduction” value in the experiment with IL-6 (100 nM compound) is listed as less than 5%. The inhibition at 0.1 µM with NF-κB came to 50%. Moreover, the EC50 was 2.8 µM in experiment [1] (18 h, read-out: DMS-135 lung EC50 (μM)); 1.3 µM with H69AR lung cancer cells (18 h, read-out: H69AR lung EC50 (μM)); 9.3 µM in experiment [2] (BXPC-3, 18 h, read-out: BxPC-3 pancreatic EC50 (μM)); 1.5 µM in experiment [3] (DU-145, 18 h, read-out: DU-145 prostate EC50 (μM)); 2.9 µM in experiment [4] (HCT-15, 18 h, read-out: HCT-15 colorectal EC50 (μM)). Besides, the values for the Ki on human CB2 receptor and at human CB1 receptor were 0.00477 µM and more than 1 µM, respectively. In addition, the CB1/CB2 on human CB2 receptor was 209. Moreover, in the experiment on CXCL-8 (100 nM compound), the “CXCL-8 Reduction” value is on record as less than 10%.

Take `Cc1cccc(-c2c(O)cc(C(=O)c3ccccc3)cc2O)c1` [Compound 26, (2,6-Dihydroxy-3′-methyl-biphenyl-4-yl)-phenyl-methanone]: in the experiment with NF-κB, the inhibition at 0.1 µM stood at 67 ± 9%. In addition, at human CB2 receptor, the Ki was 0.159 ± 0.00292 µM and the CB1/CB2 was 6.18. Also, in the experiment on CXCL-8 (100 nM compound), the “CXCL-8 Reduction” value amounted to 59 ± 5%. Besides, the Ki at human CB1 receptor came to 0.983 µM. Besides, the “CCL-2 Reduction” value with CCL-2 (100 nM compound) is 61 ± 19%.

Usually EC50 stands for the concentration at which the effect is half-maximal. The Ki is the equilibrium dissociation constant of an inhibitor or competing ligand from its target.
